Experimental data reported in patent US20230110378A1, “MONOBACTAM COMPOUND AND USE THEREOF” (EVOPOINT BIOSCIENCES CO., LTD., priority 2019, published 2023).
In brackets after ≈: the same amount, converted by molar mass. Like-named read-outs stand apart in the source and are kept apart here.

Tests used:
[1] = tested on: Klebsiella pneumoniae HDBKP 9153; assay: Minimum inhibitory concentration (broth microdilution, CLSI); type: cell-based; details: HDBKP9153
Method: (§1) 103 bacterial strains used for the minimum inhibitory concentration test were frozen in a −80° C. ULT freezer and thawed 2 days before use. A small amount of frozen microorganism bacteria were scraped using a sterile inoculating loop, streaked onto a suitable solid culture dish for inoculation, and then cultured for about 20 h at 35 t 2° C. in a normal incubator. • Proteus mirabilis HDBPM 40: MA, normal atmospheric environment • The remaining 102 strains of bacteria: TSA, normal atmospheric environment
(§2) 5-10 colonies with similar morphology were picked from the culture dish using a sterile inoculating loop and then re-streaked onto a corresponding solid culture dish. Then the dish was incubated in a normal incubator at 35 t 2° C. for about 20 h.
(§3) 5-10 single microbial colonies were picked from the solid culture dish, resuspended in 500 μL of sterile normal saline (0.9% NaCl), and adjusted to an OD600 of about 0.15 with a spectrophotometer.
(§4) The bacteria were then diluted 300-fold with 1.02×CAMHB to an inoculation concentration of 2×10^5 CFU/mL.
(§5) • There were a total of 3 assay plate patterns, one of which was used for each assay. • 8 rows of the assay plate (rows A-H) were for 8 test compounds, respectively. The highest test concentration of the compounds was 16, 32 or 64 μg/mL, and each compound was diluted 2-fold. • Growth control (GC): a medium containing microbial inoculum (1.02×CAMHB) and dimethylsulfoxide (DMSO) but no compound.
(§6) The test and reference compounds were dissolved in DMSO or H2O to prepare 6.4 mg/mL stock solutions. The stock solutions were diluted to prepare standby solutions with certain concentrations, and the volumes of the standby solutions were determined according to the experimental design. Corresponding volumes of the standby solutions were transferred to the starting wells of a dilution plate (A1-H1), and half the starting-well volume of DMSO to the other wells. Each compound was diluted 2-fold sequentially from column 1 to column 11 (e.g., transferring 30 μL of DMSO to columns 2-12 first, then pipetting 30 μL of the compounds from column 1 to column 2 and mixing them well, then pipetting 30 μL of the compounds from column 2 to column 3 and mixing them well, then pipetting 30 μL of the compounds from column 3 to column 4 and mixing them well, and so on to column 11).
(§7) 1 or 2 μL of the compounds and DMSO were transferred from the compound plate to corresponding wells of the assay plates.
(§8) 98 μL of corresponding bacterial inocula were added to the assay plates.
(§9) After addition, the assay plates were covered with sterile covers. The mixtures in the assay plates were centrifuged in a centrifuge at 800 rpm for 30 s, mixed well on a microplate shaker at 400 rpm for 1 min, and incubated in a normal incubator at 35 t 2° C. for 20-24 h.
(§10) The assay plates were placed on a plate reading device, and the speculum was adjusted to observe and record the growth condition of bacteria in each well. In the mean time, each assay plate was photographed with QCount system.
(§11) The minimum inhibitory concentration of each compound was recorded by reference to guidelines from the Clinical and Laboratory Standards Institute.
(§12) The minimum inhibitory concentrations of the compounds against experimental strains were tested in this study by reference to the medium microdilution method as indicated by the Clinical and Laboratory Standards Institute. Compounds were diluted two-fold in 96-well plates from the highest detection concentration of 16, 32 or 64 μg/mL. The bacterial inocula in the assay plates were thawed from corresponding medium plates and diluted in 1.02×CAMHB, while growth controls (GC wells) were set up in the assay plates. The minimum inhibitory concentration of each compound against different bacteria was observed and recorded after the assay plates were incubated in a normal incubator at 35 t 2° C. for about 20 h. The minimum inhibitory concentration values for the different compounds are listed in the list below.

[2] = tested on: metallo-β-lactamase-expressing Acinetobacter baumannii strain ABA-0003YK; assay: as above; type: cell-based; details: read-out: MIC A. baumannii ABA-0003YK
Method: as §1, §2, §3, §4, §5, §6, §7, §8, §9, §10, §11, §12

[3] = tested on: Pseudomonas aeruginosa HDBPA 5679; assay: as above; type: cell-based; details: HDBPA5679
Method: as §1, §2, §3, §4, §5, §6, §7, §8, §9, §10, §11, §12

[4] = tested on: Escherichia coli HDBEC 30048; assay: as above; type: cell-based; details: HDBEC30048
Method: as §1, §2, §3, §4, §5, §6, §7, §8, §9, §10, §11, §12

[5] = tested on: Escherichia coli HDBEC 30008; assay: as above; type: cell-based; details: HDBEC30008
Method: as §1, §2, §3, §4, §5, §6, §7, §8, §9, §10, §11, §12

[6] = tested on: Proteus mirabilis HDBPM 40; assay: as above; type: cell-based; details: HDBPM40
Method: as §1, §2, §3, §4, §5, §6, §7, §8, §9, §10, §11, §12

[7] = tested on: Klebsiella pneumoniae HDBKP 30006; assay: as above; type: cell-based; details: HDBKP30006
Method: as §1, §2, §3, §4, §5, §6, §7, §8, §9, §10, §11, §12

[8] = tested on: Enterobacter cloacae HDBECL 30030; assay: as above; type: cell-based; details: HDBECL30030
Method: as §1, §2, §3, §4, §5, §6, §7, §8, §9, §10, §11, §12

[9] = tested on: Escherichia coli HDBEC 30016; assay: as above; type: cell-based; details: HDBEC30016
Method: as §1, §2, §3, §4, §5, §6, §7, §8, §9, §10, §11, §12

[10] = tested on: Klebsiella pneumoniae HDBKP 9249; assay: as above; type: cell-based; details: HDBKP9249
Method: as §1, §2, §3, §4, §5, §6, §7, §8, §9, §10, §11, §12

[11] = Pharmacokinetic evaluation of compounds in mice (tail vein injection); type: in vivo, Male CD-1 (ICR) mice; details: CD-1 (ICR), mouse, male CD-1 mice, intravenous injection, plasma; for half-life: read-out: T½ (converted); for Vd: read-out: Vss
Method: Male CD-1 (ICR) mice were purchased and then acclimatized in this laboratory for at least 3 days. […] Blood samples were collected from the saphenous vein at 0.0833 h, 0.25 h, 0.5 h, 1 h, 2 h, 4 h, 8 h and 24 h following the tail vein injection administration. The volume of blood collection at each time point of the blood collection was about 30 μL. The blood samples were placed in centrifuge tubes containing anticoagulant EDTA-K2 and centrifuged at 3,200 g at 4° C. for 10 min, and then the upper plasma samples were collected and preserved in a freezer at −70±10° C. for later tests.
1) To 1.5 mL centrifuge tubes were added a 6 μL aliquot of an unknown sample, a standard curve, a quality control, a dilution quality control, single blank and double blank samples.
2) Each sample (except for the double blank sample) was treated with 120 μL of IS1-containing precipitant (the double blank sample was treated with 120 μL of pure MeOH for precipitation), and the mixtures were well mixed (for at least 15 s) using a vortexer and centrifuged at 12,000 g at 4° C. for 15 min.
3) 60 μL of the supernatants were transferred to a 96-well plate and centrifuged at 4° C. at 3220 g for 5 min, and 6 p L of the supernatants were injected for LC-MS/MS quantitative analysis.
1) The 1 h-plasma samples from the 3 mice were diluted 10-fold: 2 p L of the samples were added to 18 p L of blank matrix.
2) The 0.0833 h to 0.5 h-plasma samples from the 3 mice were diluted 100-fold: 18 μL of blank matrix was added to 2 p L of the samples to obtain 10-fold diluted samples. 2 μL of the 10-fold diluted samples were added to 18 p L of blank matrix to obtain 100-fold diluted analysis samples.
LC-MS/MS analysis conditions: chromatography column: ACQUITY UPLC HSS T3 (2.1×50 mm, 1.8 μm); column temperature: 50° C.; mobile phase A: a 0.1% aqueous solution of formic acid; mobile phase B: a 0.1% solution of formic acid in acetonitrile; flowrate: 0.65 mL/min. Internal standard: verapamil (100 ng/mL)
The concentration of the compounds in plasma was measured by LC-MS/MS (LC-MS/MS-AK_Q-Trap 6500). The pharmacokinetic software WinNonlin [version: Phoenix™ WinNonlin®6.3, manufacturer: Pharsight Corporation] was used to calculate pharmacokinetic parameters (V-Noncompartmental model 201).

AUC ([11]; dose 10 mg/kg) [ng·h/mL]	clearance ([11]; dose 10 mg/kg) [mL/min/kg]	half-life ([11]; dose 10 mg/kg) [min]	Vd ([11]; dose 10 mg/kg) [L/kg]	Structure (SMILES)	MIC [1] [µg/mL]	MIC [2] [µg/mL]	MIC [3] [µg/mL]	MIC [4] [µg/mL]	MIC [5] [µg/mL]	MIC [6] [µg/mL]	MIC [7] [µg/mL]	MIC [8] [µg/mL]	MIC [9] [µg/mL]	MIC [10] [µg/mL]	AUC ([11]; dose 5 mg/kg) [ng·h/mL]	clearance ([11]; dose 5 mg/kg) [mL/min/kg]	half-life ([11]; dose 5 mg/kg) [min]	Vd ([11]; dose 5 mg/kg) [L/kg]
				C[C@H]1[C@H](NC(=O)/C(=N\OC(C)(C)C(=O)O)c2csc(N)n2)C(=O)N1S(=O)(=O)O [Aztreonam, reference compound]	> 16	> 16	> 16	> 16	8 to 16 (≈ 18.4 to 36.7 µM)	8 to 16 (≈ 18.4 to 36.7 µM)	> 16	> 16	> 16	> 16				
				CC(C)(O/N=C(\C(=O)N[C@@H]1C(=O)N(S(=O)(=O)O)[C@@H]1CNC(=O)c1cc([C@@H]2CCN(C(=O)c3cc(=O)c(O)cn3O)C2)no1)c1csc(N)n1)C(=O)O [Compound I-7]	< 4	< 4	< 4	< 4	< 4	< 4	> 16	< 4	4 to 8 (≈ 5.21 to 10.4 µM)	> 16	4240	19.6	16.2	0.48
				CC(C)(O/N=C(\C(=O)N[C@@H]1C(=O)N(S(=O)(=O)O)[C@@H]1CNC(=O)c1cc([C@@H]2CCN(C(=O)c3ccc(O)c(O)c3Cl)C2)no1)c1csc(N)n1)C(=O)O [Compound I-27]	< 4	< 4	< 4	< 4	< 4	< 4	4 to 8 (≈ 5.09 to 10.2 µM)	< 4	< 4	4 to 8 (≈ 5.09 to 10.2 µM)				
				C[n+]1cc(-c2ncc(C(=O)NC[C@@H]3[C@H](NC(=O)/C(=N\OC4(C(=O)O)CC4)c4csc(N)n4)C(=O)N3S(=O)(=O)O)s2)cn1CCCNC(=O)c1ccc(O)c(O)c1Cl [Compound I-28]	< 4	< 4	< 4	< 4	< 4	< 4	4 to 8	< 4	< 4	< 4				
				CC(C)(O/N=C(\C(=O)N[C@@H]1C(=O)N(S(=O)(=O)O)[C@@H]1CNC(=O)c1cnc([C@@H]2CCN(C(=O)c3ccc(O)c(O)c3Cl)C2)s1)c1csc(N)n1)C(=O)O [Compound I-30]	< 4	< 4	< 4	< 4	< 4	< 4	4 to 8 (≈ 4.99 to 9.98 µM)	< 4	< 4	4 to 8 (≈ 4.99 to 9.98 µM)				
				CC(C)(O/N=C(\C(=O)N[C@@H]1C(=O)N(S(=O)(=O)O)[C@@H]1CNC(=O)c1cc(C2CC[N+](C)(CCNC(=O)c3ccc(O)c(O)c3Cl)C2)no1)c1csc(N)n1)C(=O)O (some centres unmarked) [Compound I-32]	< 4	< 4	< 4	< 4	< 4	< 4	8 to 16	< 4	4 to 8	< 4				
				C[n+]1cc(-c2ncc(C(=O)NC[C@@H]3[C@H](NC(=O)/C(=N\OC(C)(C)C(=O)O)c4csc(N)n4)C(=O)N3S(=O)(=O)O)s2)cn1CCCNC(=O)c1ccc(O)c(O)c1Cl [Compound I-33]	< 4	< 4	< 4	< 4	< 4	< 4	8 to 16	< 4	< 4	4 to 8				
8530	19.5	85.8	0.57	CC(C)(O/N=C(\C(=O)N[C@@H]1C(=O)N(S(=O)(=O)O)[C@@H]1CNC(=O)c1cc([C@@H]2CCN(CCNC(=O)c3ccc(O)c(O)c3Cl)C2)no1)c1csc(N)n1)C(=O)O [Compound I-35]	< 4		< 4	< 4	< 4	< 4	< 4	< 4	< 4	4 to 8 (≈ 4.83 to 9.66 µM)				
9660	17.3	35.4	0.24	Cc1c(O)c(=O)cc(C(=O)N2CC[C@@H](c3cc(C(=O)NC[C@@H]4[C@H](NC(=O)/C(=N\OC(C)(C)C(=O)O)c5csc(N)n5)C(=O)N4S(=O)(=O)O)on3)C2)n1O [Compound I-43]	< 4		< 4	< 4	< 4	< 4	8 to 16 (≈ 10.2 to 20.5 µM)	< 4	< 4	8 to 16 (≈ 10.2 to 20.5 µM)				
17300	9.61	37.8	0.19	Cc1c(C(=O)N2CC[C@@H](c3cc(C(=O)NC[C@@H]4[C@H](NC(=O)/C(=N\OC(C)(C)C(=O)O)c5csc(N)n5)C(=O)N4S(=O)(=O)O)on3)C2)n(O)c(C)c(O)c1=O [Compound I-44]	< 4		< 4	< 4	< 4	< 4	8 to 16 (≈ 10.1 to 20.1 µM)	< 4	4 to 8 (≈ 5.03 to 10.1 µM)	8 to 16 (≈ 10.1 to 20.1 µM)				
